5 molecules from ChEMBL document CHEMBL4425184, “C15-methoxyphenylated 18-deoxy-herbimycin A analogues, their in vitro anticancer activity and heat shock protein 90 binding affinity” (Bioorg Med Chem Lett, 2016) can be followed below.

Assay [1] concerns the target T1, Heat shock protein HSP 90-alpha (Homo sapiens, UniProt P07900). In words: Displacement of fluorescent labelled-VER00051001 from N-terminal ATP-binding site of human recombinant HSP90A expressed in Escherichia coli measured after 20 hrs by fluorescence polarization assay. Background: Fluorescence polarisation rises when a labelled molecule tumbles more slowly, as on binding a larger partner.

A further assay concerns BGC-823. As to the kind of experiment: Antiproliferative activity against human BGC823 assessed as reduction in cell viability measured after 96 hrs by MTT assay. Format: functional, cell-based. To be noted: BGC-823, 96 h. Background: Tetrazolium dyes change colour on reduction, which living cells bring about.
The target of assay [2] is T1, Heat shock protein HSP 90-alpha. As to the kind of experiment: Displacement of fluorescent labelled-VER00051001 from N-terminal ATP-binding site of human recombinant HSP90A expressed in Escherichia coli measured after 32 hrs by fluorescence polarization assay.
A further assay concerns MCF7. In words: Antiproliferative activity against human MCF7 assessed as reduction in cell viability measured after 96 hrs by MTT assay. Type of assay: functional, cell-based. Particulars: MCF7, 96 h.
For assay [3], the target named is T1, Heat shock protein HSP 90-alpha. In words: Displacement of fluorescent labelled-VER00051001 from N-terminal ATP-binding site of human recombinant HSP90A expressed in Escherichia coli measured after 29 hrs by fluorescence polarization assay.
Assay [4] has the same target. In words: Displacement of fluorescent labelled-VER00051001 from N-terminal ATP-binding site of human recombinant HSP90A expressed in Escherichia coli measured after 48 hrs by fluorescence polarization assay.
The subject of the next assay is A-375. In words: Antiproliferative activity against human A375 assessed as reduction in cell viability measured after 96 hrs by MTT assay. Format: functional, cell-based. To be noted: A-375, 96 h.
Another assay concerns HCT-116. As to the kind of experiment: Antiproliferative activity against human HCT116 assessed as reduction in cell viability measured after 96 hrs by MTT assay. Format: functional, cell-based. To be noted: HCT-116, 96 h.
Another assay relates to A2780. As to the kind of experiment: Antiproliferative activity against human A2780 assessed as reduction in cell viability measured after 96 hrs by MTT assay. Format: functional, cell-based. To be noted: A2780, 96 h.
Assay [5] deals with T1, Heat shock protein HSP 90-alpha. In words: Displacement of fluorescent labelled-VER00051001 from N-terminal ATP-binding site of human recombinant HSP90A expressed in Escherichia coli measured after 44 hrs by fluorescence polarization assay.
A further assay concerns SW1990. In words: Antiproliferative activity against human SW1990 assessed as reduction in cell viability measured after 96 hrs by MTT assay. Type of assay: functional, cell-based. To be noted: SW1990, 96 h.

As for `COc1ccc([C@H]2c3cccc(c3O)NC(=O)/C(C)=C/C=C\[C@H](OC)[C@@H](OC(N)=O)/C(C)=C/[C@H](C)[C@@H](OC)[C@@H](OC)C[C@@H]2C)cc1`, the IC50 (usually the concentration that inhibits the measured activity by half) came to 119 nM in assay [1]; 6470 nM in the assay on BGC-823; 101 nM in assay [2]; 9580 nM in the assay with MCF7; 102 nM in assay [3]; 97.1 nM in assay [4]. The half-maximal inhibitory concentration (IC50) in the assay on A-375 turned out to be 2560 nM; in the assay on HCT-116, 6340 nM; in the assay with A2780 it was 2380 nM; in assay [5], 98.5 nM; in the assay on SW1990 it was 3370 nM.

`COc1ccc([C@H]2c3cccc(c3O)NC(=O)/C(C)=C/C=C\[C@H](OC)[C@@H](OC(N)=O)/C(C)=C/[C@H](C)[C@@H](O)[C@@H](OC)C[C@@H]2C)cc1`: the IC50 in [1] was 64.5 nM; with BGC-823 it was 630 nM; in assay [2], 55.8 nM; in the assay with MCF7, 450 nM; in [3], 59.4 nM; in assay [4], 53 nM. The IC50 was 450 nM with A-375; 440 nM with HCT-116; 470 nM with A2780; 56.7 nM in [5]; 800 nM in the assay on SW1990.

For the molecule `COc1ccc([C@H]2c3cccc(c3O)NC(=O)/C(C)=C/CC[C@H](OC)[C@@H](OC(N)=O)/C(C)=C/[C@H](C)[C@@H](OC)[C@@H](OC)C[C@@H]2C)cc1`, the IC50 in assay [1] was above 1000 nM; in the assay on BGC-823, above 20000 nM; in assay [2] it was above 1000 nM; in the assay with MCF7, above 20000 nM; in [3], above 1000 nM; in [4], above 1000 nM. The IC50 in the assay with A-375 was above 20000 nM; with HCT-116, above 20000 nM; in the assay with A2780, above 20000 nM; in assay [5], above 1000 nM; with SW1990, above 20000 nM.

Consider `COc1ccc([C@H]2c3cccc(c3O)NC(=O)/C(C)=C/CC[C@H](OC)[C@@H](OC(N)=O)/C(C)=C/[C@H](C)[C@@H](O)[C@@H](OC)C[C@@H]2C)cc1`, for which the IC50 was above 1000 nM in [1]; above 20000 nM in the assay on BGC-823; above 1000 nM in [2]; above 20000 nM in the assay on MCF7; above 1000 nM in assay [3]; above 1000 nM in assay [4]. The IC50 was above 20000 nM with A-375; above 20000 nM in the assay with HCT-116; above 20000 nM in the assay with A2780; above 1000 nM in [5]; above 20000 nM in the assay with SW1990.

Regarding `CO[C@H]1/C=C\C=C(/C)C(=O)NC2=CC(=O)C=C(C2=O)[C@H](OC)[C@@H](C)C[C@H](OC)[C@H](O)[C@@H](C)/C=C(\C)[C@@H]1OC(N)=O` [HERBIMYCIN C], the IC50 in assay [1] was determined as 22.2 nM; in the assay on BGC-823, 3990 nM; in assay [2] it was 18.4 nM; with MCF7 it was 5070 nM; in assay [3], 19.7 nM; in assay [4] it was 16.8 nM. Further, the concentration for half-maximal inhibition (IC50) was 2430 nM with A-375; 9390 nM with HCT-116; 3010 nM with A2780; 18.1 nM in assay [5]; 8620 nM in the assay on SW1990.
